Experiment [1] has as its target T1, Histone acetyltransferase p300/Hypoxia-inducible factor 1-alpha (Homo sapiens, UniProt Q09472+Q16665). The experiment is described as follows: Inhibition of HIF-1alpha (unknown origin)/p300 (unknown origin) protein-protein interaction by fluorescence anisotropy. It is filed as protein-complex assay. (In fluorescence polarisation assays a small probe gives low polarisation when free and higher when bound to something large.)

In experiment [2] the target is T2, Histone acetyltransferase p300 (Homo sapiens, UniProt Q09472). The experiment is described as follows: Binding affinity to human GST-fused p300 CH1 domain (323 to 423 residues) under hypoxic condition by SPR assay.
Experiment [3] deals with T1, Histone acetyltransferase p300/Hypoxia-inducible factor 1-alpha. The experiment is described as follows: Inhibition of human fluorescein-labeled HIF-1alpha (786 to 826 residues)/ human GST-fused p300 CH1 domain (323 to 423 residues) protein-protein interaction after 1 hr by fluorescence polarization assay. It counts as protein-complex assay.
For experiment [4], the target named is T3, Hypoxia-inducible factor 1-alpha (Homo sapiens, UniProt Q16665). The experiment is described as follows: Binding affinity to HIF-1alpha (unknown origin) PAS B domain assessed as incorporation at Cys255 residues by mass spectrometry. The arrangement: concentration or dose not given beside the values.
Target sequence in this assay (Q16665 whole entry, looked up): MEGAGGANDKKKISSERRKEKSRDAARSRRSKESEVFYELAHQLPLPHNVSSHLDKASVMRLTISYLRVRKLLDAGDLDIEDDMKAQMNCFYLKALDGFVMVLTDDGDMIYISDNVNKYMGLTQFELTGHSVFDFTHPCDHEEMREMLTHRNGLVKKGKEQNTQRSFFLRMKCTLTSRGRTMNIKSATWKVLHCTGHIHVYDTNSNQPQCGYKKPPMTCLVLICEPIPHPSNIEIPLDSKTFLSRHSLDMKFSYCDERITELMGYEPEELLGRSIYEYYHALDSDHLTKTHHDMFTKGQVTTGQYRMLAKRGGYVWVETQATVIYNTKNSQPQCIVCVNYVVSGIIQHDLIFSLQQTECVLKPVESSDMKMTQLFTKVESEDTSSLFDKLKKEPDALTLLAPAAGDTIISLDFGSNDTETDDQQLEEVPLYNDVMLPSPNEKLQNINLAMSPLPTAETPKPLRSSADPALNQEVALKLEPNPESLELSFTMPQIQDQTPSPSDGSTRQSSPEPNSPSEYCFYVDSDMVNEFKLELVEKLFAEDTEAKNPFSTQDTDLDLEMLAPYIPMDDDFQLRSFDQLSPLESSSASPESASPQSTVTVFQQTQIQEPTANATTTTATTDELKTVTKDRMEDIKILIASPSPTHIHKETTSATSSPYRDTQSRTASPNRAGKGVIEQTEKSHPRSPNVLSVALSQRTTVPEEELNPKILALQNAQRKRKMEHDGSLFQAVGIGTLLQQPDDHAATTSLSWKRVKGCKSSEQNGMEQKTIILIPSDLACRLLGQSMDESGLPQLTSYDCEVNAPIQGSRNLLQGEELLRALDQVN
Experiment [5] deals with T3, Hypoxia-inducible factor 1-alpha. The experiment is described as follows: Binding affinity to HIF-1alpha (unknown origin) PAS B domain assessed as incorporation at His246 residues by mass spectrometry.
Target sequence in this assay (Q16665 whole entry, looked up): as above
Experiment [6] shares this target. The experiment is described as follows: Binding affinity to C-terminal Avi/FLAG-tagged HIF-1alpha (unknown origin) assessed as incorporation at His266 residues by mass spectrometry.
Target sequence in this assay (Q16665 whole entry, looked up): as above
Experiment [7] shares this target. The experiment is described as follows: Binding affinity to HIF-1alpha (unknown origin) PAS B domain assessed as incorporation at Lys297 residues by mass spectrometry.
Target sequence in this assay (Q16665 whole entry, looked up): as above
Experiment [8] has the same target. The experiment is described as follows: Binding affinity to HIF-1alpha (unknown origin) PAS B domain assessed as incorporation at Cys334 residues by mass spectrometry.
Target sequence in this assay (Q16665 whole entry, looked up): as above
Experiment [9] shares this target. The experiment is described as follows: Inhibition of HIF-1 dimerization in HEK293 cells after 24 hrs by renilla luciferase reporter gene assay. It is filed as cell-based. A general note: Reporter assays use an easily measured gene product as a stand-in for the process of interest.
Target sequence in this assay (Q16665 whole entry): as the sequence (Q16665 whole entry, looked up) above
The target in experiment [10] is T1, Histone acetyltransferase p300/Hypoxia-inducible factor 1-alpha. The experiment is described as follows: Inhibition of fluorescein-labeled HIF-1alpha (786 to 826 residues) (unknown origin)/GST-fused p300 CH1 domain (323 to 423 residues) (unknown origin) protein-protein interaction after overnight incubation by time-resolved fluorescence assay. It counts as protein-complex assay.

Experiment [11] has as its target T2, Histone acetyltransferase p300. The experiment is described as follows: Binding affinity to p300 CH1 domain (unknown origin) by tryptophan fluorescence assay.
For experiment [12], the target named is T1, Histone acetyltransferase p300/Hypoxia-inducible factor 1-alpha. The experiment is described as follows: Inhibition of HIF-1alpha (unknown origin)/p300 (unknown origin) protein-protein interaction. It counts as protein-complex assay.
Experiment [13] deals with T2, Histone acetyltransferase p300. The experiment is described as follows: Binding affinity to p300 (unknown origin) by fluorescence anisotrophy.
The next experiment has as its system MDA-MB-231. The experiment is described as follows: Antitumor activity against human MDA-MB-231 cells xenografted in mouse assessed as reduction in tumor volume at 15 mg/kg administered on alternative days for 28 days relative to control. It is filed as functional. The arrangement: scale not given: the % may be the effect or the level left.
In experiment [14] the target is T2, Histone acetyltransferase p300. The experiment is described as follows: Binding affinity to human p300 CH1 domain (330 to 420 residues) expressed in Escherichia coli BL21(DE3) by fluorescence anisotropy competition assay.
For experiment [15], the target named is T3, Hypoxia-inducible factor 1-alpha. The experiment is described as follows: Binding affinity to Cys255 residue of C-terminal Avi/FLAG-tagged HIF-1alpha (unknown origin) after 1 hr by AlphaScreen assay. On the technique in general: Bead proximity is the source of the signal in Alpha formats.
Target sequence in this assay (Q16665 whole entry): as the sequence (Q16665 whole entry, looked up) above
Experiment [16] concerns the target T1, Histone acetyltransferase p300/Hypoxia-inducible factor 1-alpha. The experiment is described as follows: Inhibition of HIF-1alpha/p300 protein-protein interaction in human cells after 2 hrs by immunoprecipitation assay. It is filed as cell-based.
In experiment [17] the target is T3, Hypoxia-inducible factor 1-alpha. The experiment is described as follows: Binding affinity to His-tagged HIF-1alpha (1 to 350 residues) (unknown origin) PAS B domain expressed in Escherichia coli BL21(DE3) by ITC.
Target sequence in this assay (Q16665 whole entry): as the sequence (Q16665 whole entry, looked up) above
Experiment [18] addresses T1, Histone acetyltransferase p300/Hypoxia-inducible factor 1-alpha. The experiment is described as follows: Inhibition of fluorescein-labeled HIF-1alpha (786 to 826 residues) (unknown origin)/GST-fused p300 CH1 domain (323 to 423 residues) (unknown origin) protein-protein interaction at 500 uM after overnight incubation by time-resolved fluorescence assay relative to control. It counts as protein-complex assay.

Numbered stars: 1 amine (or outer) side, 2 acyl side, 3 side chain; on linkers, the order of the positions; unused ones are H or OH. Square brackets hold non-standard residues; d marks the D form. Peptide text beside a SMILES is read from it. 4Abz(3-OiBu) = CC(C)COc1cc(C(=O)[*:2])ccc1N[*:1]; X3 = CC(C)Oc1cc(C(=O)[*:2])ccc1N[*:1]

T2 sequence (Q09472 whole entry, the tested form may be a part): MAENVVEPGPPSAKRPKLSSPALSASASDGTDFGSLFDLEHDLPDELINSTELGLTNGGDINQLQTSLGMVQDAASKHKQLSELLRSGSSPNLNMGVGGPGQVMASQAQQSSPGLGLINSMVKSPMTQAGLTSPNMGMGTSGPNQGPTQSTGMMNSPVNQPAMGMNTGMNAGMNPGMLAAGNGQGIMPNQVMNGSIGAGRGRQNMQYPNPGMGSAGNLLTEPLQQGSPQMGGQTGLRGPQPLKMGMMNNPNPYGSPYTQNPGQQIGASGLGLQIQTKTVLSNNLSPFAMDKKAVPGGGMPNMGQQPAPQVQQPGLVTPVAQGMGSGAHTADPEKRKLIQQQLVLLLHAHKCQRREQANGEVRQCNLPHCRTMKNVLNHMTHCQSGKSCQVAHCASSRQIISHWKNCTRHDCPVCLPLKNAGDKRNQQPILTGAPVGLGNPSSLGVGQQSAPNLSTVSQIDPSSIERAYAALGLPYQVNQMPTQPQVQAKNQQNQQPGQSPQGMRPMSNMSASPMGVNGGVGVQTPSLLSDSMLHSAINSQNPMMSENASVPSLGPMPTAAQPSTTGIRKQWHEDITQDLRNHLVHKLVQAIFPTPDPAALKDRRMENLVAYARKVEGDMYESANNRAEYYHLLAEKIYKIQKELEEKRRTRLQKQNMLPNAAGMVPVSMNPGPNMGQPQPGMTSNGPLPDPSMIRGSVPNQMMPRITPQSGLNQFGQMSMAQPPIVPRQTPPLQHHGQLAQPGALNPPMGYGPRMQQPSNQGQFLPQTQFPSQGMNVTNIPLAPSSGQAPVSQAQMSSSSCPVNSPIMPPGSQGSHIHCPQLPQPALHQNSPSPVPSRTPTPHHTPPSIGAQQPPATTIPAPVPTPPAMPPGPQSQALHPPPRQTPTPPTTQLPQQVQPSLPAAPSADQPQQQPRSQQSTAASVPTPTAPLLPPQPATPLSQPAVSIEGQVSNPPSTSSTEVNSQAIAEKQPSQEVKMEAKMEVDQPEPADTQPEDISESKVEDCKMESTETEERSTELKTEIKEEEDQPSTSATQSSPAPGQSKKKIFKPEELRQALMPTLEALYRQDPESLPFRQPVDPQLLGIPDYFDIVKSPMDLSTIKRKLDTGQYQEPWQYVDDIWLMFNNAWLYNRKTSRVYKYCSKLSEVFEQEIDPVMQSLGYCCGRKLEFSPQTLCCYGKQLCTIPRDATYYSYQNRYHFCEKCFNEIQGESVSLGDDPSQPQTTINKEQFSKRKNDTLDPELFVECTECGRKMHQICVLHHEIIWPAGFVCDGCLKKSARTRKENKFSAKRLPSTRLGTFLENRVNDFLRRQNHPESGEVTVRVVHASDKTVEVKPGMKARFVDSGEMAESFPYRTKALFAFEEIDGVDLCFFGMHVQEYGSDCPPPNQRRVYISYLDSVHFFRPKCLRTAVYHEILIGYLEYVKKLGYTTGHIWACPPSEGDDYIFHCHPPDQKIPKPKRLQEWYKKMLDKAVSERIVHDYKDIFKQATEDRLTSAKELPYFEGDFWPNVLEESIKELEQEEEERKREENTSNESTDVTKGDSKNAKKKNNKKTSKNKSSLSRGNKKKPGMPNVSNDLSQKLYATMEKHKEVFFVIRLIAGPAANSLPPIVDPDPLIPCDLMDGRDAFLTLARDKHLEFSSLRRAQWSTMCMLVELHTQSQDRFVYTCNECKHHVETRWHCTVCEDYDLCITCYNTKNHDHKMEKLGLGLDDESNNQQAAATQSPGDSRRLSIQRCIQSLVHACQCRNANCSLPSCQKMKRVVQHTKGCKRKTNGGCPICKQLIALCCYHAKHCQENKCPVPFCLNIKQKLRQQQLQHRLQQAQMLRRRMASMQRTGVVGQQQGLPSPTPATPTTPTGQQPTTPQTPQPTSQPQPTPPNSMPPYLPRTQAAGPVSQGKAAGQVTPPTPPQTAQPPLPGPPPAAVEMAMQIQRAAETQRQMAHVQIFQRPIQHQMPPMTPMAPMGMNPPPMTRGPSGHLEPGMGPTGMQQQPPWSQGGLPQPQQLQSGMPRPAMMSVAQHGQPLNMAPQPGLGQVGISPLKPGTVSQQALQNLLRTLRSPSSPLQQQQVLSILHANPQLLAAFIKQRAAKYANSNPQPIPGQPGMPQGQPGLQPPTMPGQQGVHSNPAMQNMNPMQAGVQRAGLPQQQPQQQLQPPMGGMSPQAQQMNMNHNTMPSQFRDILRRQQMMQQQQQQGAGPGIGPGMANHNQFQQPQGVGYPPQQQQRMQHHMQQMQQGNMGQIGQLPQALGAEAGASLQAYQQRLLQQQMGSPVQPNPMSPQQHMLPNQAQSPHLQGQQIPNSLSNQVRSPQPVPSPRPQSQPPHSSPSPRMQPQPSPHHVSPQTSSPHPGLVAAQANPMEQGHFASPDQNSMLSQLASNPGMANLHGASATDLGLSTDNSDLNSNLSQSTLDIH

For the molecule `CC[C@H](C)[C@H](NC(=O)[C@@H]1CCCN1C(=O)[C@H](C)NC(=O)[C@H](CC(N)=O)NC(=O)[C@@H](NC(=O)[C@H](CCC(=O)O)NC(=O)[C@H](CO)NC(=O)[C@H](CC(=O)O)NC(=O)[C@H](Cc1ccc(O)cc1)NC(=O)[C@H](CO)NC(=O)[C@@H](NC(=O)[C@H](CC(C)C)NC(=O)[C@@H](N)CCC(N)=O)[C@@H](C)O)C(C)C)C(=O)N[C@@H](CCC(N)=O)C(=O)NCC(=O)N[C@@H](CO)C(=O)N[C@@H](CCCNC(=N)N)C(=O)N[C@@H](CC(N)=O)C(=O)N[C@@H](CC(C)C)C(=O)N[C@@H](CC(C)C)C(=O)N[C@@H](CCC(N)=O)C(=O)NCC(=O)Nc1ccc(C(=O)Nc2ccc(C(=O)Nc3ccc(C(=O)NCC(N)=O)cc3OC(C)C)cc2OCC(C)C)cc1OCC(C)C` (H-QLTSYDSEVNAPIQGSRNLLQG[4Abz(3-OiBu)][4Abz(3-OiBu)][X3]G-NH2), in experiment [1], the IC50 (commonly the concentration needed to halve the response being measured) worked out at 83000 nM.
`CN1C(=O)[C@@]2(Cc3ccc(C[C@]45SS[C@](CO)(C(=O)N4C)N(C)C5=O)cc3)SS[C@]1(CO)C(=O)N2C`: binding in experiment [2] was characterised by a dissociation constant (Kd) of 750 nM. For the same molecule, in experiment [3], half-maximal inhibition (IC50) required 1500 nM.
Take `C=C1C(=O)OC2C1CCC(=C)C1CC(=O)C(=C)C12` (centres undefined): the Activity in experiment [4] is greater than 50%; in experiment [5], 10 to 20%; in experiment [6], 10 to 20%; in [7], 10 to 20%; in [8], 10 to 20%.
Regarding `C[n+]1c2cc(N)ccc2cc2ccc(N)cc21` [EUFLAVINE], the IC50 in experiment [9] came out at 1000 nM.
With `COc1ccc([C@@]2(c3nc(N)[nH]c3-c3ccc(O)cc3)N=C3N=CC=C4c5ccccc5N=C2N43)cc1`, in experiment [10], the IC50 was found to be 276000 nM.
`CCCC[C@@H](C(=O)N1CCN([C@@H](CCC(N)=O)C(N)=O)C(=O)[C@@H]1C)N1CCN[C@@H](CC(C)C)C1=O`: the Kd (commonly the free concentration of one partner at which half of the binding sites on the other are occupied at equilibrium, for simple one-to-one binding) in experiment [11] was determined as 30000 nM.
In experiment [12], `COc1ccc(S(=O)(=O)N(Cc2ccc(CN3CCOCC3)cc2)c2ccccc2)cc1OC` displayed a half-maximal inhibitory concentration (IC50) of 900 nM.
Molecule H-QLTSYDCEVNA-OH returned a Kd in experiment [13] of 6740 nM.
Regarding `CC(C)C[C@@H]1NCCN([C@@H](CC(C)C)C(=O)N2CCN([C@@H](CCC(N)=O)C(N)=O)C(=O)[C@@H]2C)C1=O`, the Activity in the experiment on MDA-MB-231 stood at 50%.
`CC(C)COc1cc(C(=O)O)ccc1NC(=O)c1ccc(NC(=O)c2ccc(N)c(OC(C)C)c2)c(OCC(C)C)c1`: in [14], the IC50 worked out at 24000 nM.
`O=[N+]([O-])c1ccc2c(c1)S(=O)(=O)C=C2` had an IC50 in experiment [15] of 43 nM. Further, the Activity in experiment [4] was greater than 50%.
As to `CC(C)COc1cc(C(=O)Nc2ccc(C(=O)Nc3ccc(C(=O)O)cc3OC(C)C)cc2OCC(C)C)ccc1N`, the IC50 in [14] turned out to be 9190 nM.
Consider `CC1=CC(O)(C#Cc2ccccc2)C=CC1=O` (centres undefined), for which the Activity in [4] was greater than 50%; in experiment [5] it was 10 to 20%; in experiment [6], 10 to 20%; in [7], 10 to 20%; in experiment [8], 10 to 20%.
Molecule `CN1C(=O)[C@]2(Cc3cn([C@]45C[C@@]67SS[C@@](CO)(C(=O)N6[C@H]4Nc4ccccc45)N(C)C7=O)c4ccccc34)SS[C@@]1(CO)C(=O)N2C` [CHETOMIN] came in with an IC50 in experiment [16] of 540 nM.
Turning to `COC(=O)/C=C1/OC(c2ccc(O)cc2)=CC1=O`, the Activity was greater than 50% in experiment [4]; 10 to 20% in [5]; 10 to 20% in experiment [6]; 10 to 20% in experiment [7]; 10 to 20% in [8].
`CC(C)C[C@@H]1NC(=O)[C@H](CS)NC(=O)[C@H](Cc2ccc(O)cc2)NC(=O)[C@H](C(C)C)NC(=O)[C@H](Cc2ccccc2)NC(=O)[C@H](CC(C)C)NC1=O` came in with a Kd in experiment [17] of 124 nM.
For `CN1C(=O)[C@@]23C[C@]4([C@]56C[C@@]78SS[C@@](CO)(C(=O)N7[C@H]5Nc5ccccc56)N(C)C8=O)c5ccccc5N[C@@H]4N2C(=O)[C@]1(CO)SS3` [CHAETOCIN], the IC50 in experiment [12] was found to be 12500 nM.
With `CN1C(=O)[C@@]2(Cc3ccc(CCc4ccc(C[C@@]56SS[C@@](CO)(C(=O)N5C)N(C)C6=O)cc4)cc3)NC(=O)[C@]1(CO)SS2`, binding in experiment [2] was put at a Kd of 3620 nM. This molecule also registered an IC50 in [3] of 600 to 700 nM.
`COc1ccc(S(=O)(=O)N(Cc2ccc3c(n2)C=CC(C)(C)O3)C2CCC2)cc1OC` registered an IC50 in [12] of 280 nM.
Consider `COc1ccc([C@]2(c3nc(N)[nH]c3-c3ccc(O)cc3)N=C3N=CC=C4c5ccccc5N=C2N43)cc1`, for which, in experiment [18], the inhibition (in general, the share of the control response that was lost under treatment) worked out at 27%.
Consider `COc1ccc(S(=O)(=O)N(Cc2ccc3c(c2)C=CC(C)(C)O3)c2ccccc2)cc1OC`, for which, in experiment [12], the half-maximal inhibitory concentration (IC50) came to 590 nM.
H-QLTSYDCEVNAPIQGSRNLLQGEELLRALDQVN-OH returned an IC50 in [1] of 89000 nM.
Take `COc1ccc(S(=O)(=O)N(Cc2ccc(CN3CCOCC3)cc2)C2CCC2)cc1OC`: the IC50 in experiment [12] is 1000 nM.
Turning to `C=CC(=O)N1CCc2ccccc21`, the Activity in [4] turned out to be 25%.

These data come from ChEMBL document CHEMBL4480430, “Advances in inhibition of protein-protein interactions targeting hypoxia-inducible factor-1 for cancer therapy” (Bioorg Med Chem, 2019).
